Patent publication US20220125053A1, “Pesticidal Mixtures” (BASF SE, priority 2019, published 2022)

Key:
[1] = tested on: Qoi resistant isolate of Septoria tritici; assay: Microtest: activity against leaf blotch on wheat caused by Septoria tritici (SEPTTR), Qoi resistant isolate; assay type: cell-based; conditions: single compound, 7 days after inoculation
Text: (§1) The active compounds were formulated separately as a stock solution having a concentration of 10000 ppm in dimethyl sulfoxide.
(§2) 2. Activity against leaf blotch on wheat caused by Septoria tritici (SEPTTR) The stock solutions were mixed according to the ratio, pipetted onto a micro titer plate (MTP) and diluted with water to the stated concentrations. A spore suspension of a Qoi resistant isolate of Septoria tritici in an aqueous biomalt or yeast-bactopeptone-glycerine or DOB solution was then added. The plates were placed in a water vapor-saturated chamber at a temperature of 18° C. Using an absorption photometer, the MTPs were measured at 405 nm 7 days after the inoculation.
(§3) The measured parameters were compared to the growth of the active compound-free control variant (100%) and the fungus-free blank value to determine the relative growth in % of the pathogens in the respective active compounds.
(§4) These percentages were converted into efficacies.
(§5) An efficacy of 0 means that the growth level of the pathogens corresponds to that of the untreated control; an efficacy of 100 means that the pathogens were not growing.
(§6) The expected efficacies of active compound mixtures were determined using Colby's formula [R. S. Colby, “Calculating synergistic and antagonistic responses of herbicide combinations”, Weeds 15, 20-22 (1967)] and compared with the observed efficacies.

Microdochium nivale = assay: Microtest: activity against Microdochium nivale (MONGNI); assay type: cell-based; conditions: single compound, 7 days after inoculation
Procedure: as §1
as §2, with “1.” for “2.”, “Microdochium nivale (MONGNI)” for “leaf blotch on wheat caused by Septoria tritici (SEPTTR)”, “Microdochium nivale” for “a Qoi resistant isolate of Septoria tritici”
as §3, §4, §5, §6

Compound | Observed efficacy ([1]; 0.004 ppm) | Observed efficacy ([1]; 0.016 ppm) | Observed efficacy ([1]; 0.063 ppm) | Observed efficacy (Microdochium nivale; 0.063 ppm) | Observed efficacy (Microdochium nivale; 0.016 ppm)
CC(C)c1ccc(Cl)cc1CN(C(=O)c1c(C(F)F)nn(C)c1F)C1CC1 [Isoflucypram, N-(5-chloro-2-isopropylbenzyl)-N-cyclopropyl-3-(difluoromethyl)-5-fluoro-1-methyl-1H-pyrazole-4-carboxamide] | 0 | 5 | 34 | 40 | 
Cc1cccc(-n2nnn(C)c2=O)c1COc1ccn(-c2ccc(Cl)cc2)n1 [Metyltetraprol, 1-[2-[[1-(4-chlorophenyl)pyrazol-3-yl]oxymethyl]-3-methyl-phenyl]-4-methyl-tetrazol-5-one] |  | 0 | 1 |  | 32
